Experimental data from the NIST ThermoML archive (doi:10.1016/j.jct.2017.03.006).

Assay: xn = mol fraction of the nth substance listed
Conditions: Liquid; for viscosity: Concentric cylinders viscometry; for mass density: Vibrating tube method

Cc1ccc(C)c(C)c1 [1,2,4-trimethylbenzene] + CCCCO
Conditions | mass density [kg/m3] | viscosity [mPa·s]
323.15 K, 100 kPa, x2 = 0.7975 | – | 1.027
323.15 K, 100 kPa, x2 = 0.9131 | – | 1.22
333.15 K, 100 kPa, x2 = 0 | 843.6 | 0.562
333.15 K, 100 kPa, x2 = 0.1002 | – | 0.552
333.15 K, 100 kPa, x2 = 0.1005 | 836.9 | –
333.15 K, 100 kPa, x2 = 0.2261 | 830.2 | –
333.15 K, 100 kPa, x2 = 0.2327 | – | 0.564
333.15 K, 100 kPa, x2 = 0.2999 | 826.1 | –
333.15 K, 100 kPa, x2 = 0.3 | – | 0.582
333.15 K, 100 kPa, x2 = 0.3966 | 820.6 | –
333.15 K, 100 kPa, x2 = 0.3969 | – | 0.6
333.15 K, 100 kPa, x2 = 0.5289 | 812.8 | –
333.15 K, 100 kPa, x2 = 0.53 | – | 0.652
333.15 K, 100 kPa, x2 = 0.6367 | 805.8 | –
333.15 K, 100 kPa, x2 = 0.637 | – | 0.711
333.15 K, 100 kPa, x2 = 0.7249 | 799.8 | –
333.15 K, 100 kPa, x2 = 0.7975 | – | 0.853
333.15 K, 100 kPa, x2 = 0.7977 | 794.5 | –
333.15 K, 100 kPa, x2 = 0.9131 | 785.6 | 0.996
333.15 K, 1000 kPa, x2 = 0 | 844.4 | –
333.15 K, 1000 kPa, x2 = 0.1005 | 837.7 | –
333.15 K, 1000 kPa, x2 = 0.2261 | 831 | –
333.15 K, 1000 kPa, x2 = 0.2999 | 826.9 | –
333.15 K, 1000 kPa, x2 = 0.3966 | 821.4 | –
333.15 K, 1000 kPa, x2 = 0.5289 | 813.6 | –
333.15 K, 1000 kPa, x2 = 0.6367 | 806.6 | –
333.15 K, 1000 kPa, x2 = 0.7249 | 800.7 | –
333.15 K, 1000 kPa, x2 = 0.7977 | 795.3 | –
333.15 K, 1000 kPa, x2 = 0.9131 | 786.4 | –
333.15 K, 5000 kPa, x2 = 0 | 847.6 | –
333.15 K, 5000 kPa, x2 = 0.1005 | 841 | –
333.15 K, 5000 kPa, x2 = 0.2261 | 834.4 | –
333.15 K, 5000 kPa, x2 = 0.2999 | 830.3 | –
333.15 K, 5000 kPa, x2 = 0.3966 | 824.8 | –
333.15 K, 5000 kPa, x2 = 0.5289 | 817.1 | –
333.15 K, 5000 kPa, x2 = 0.6367 | 810.1 | –
333.15 K, 5000 kPa, x2 = 0.7249 | 804.2 | –
333.15 K, 5000 kPa, x2 = 0.7977 | 798.8 | –
333.15 K, 5000 kPa, x2 = 0.9131 | 789.9 | –
333.15 K, 10000 kPa, x2 = 0 | 851.4 | –
333.15 K, 10000 kPa, x2 = 0.1005 | 844.9 | –
333.15 K, 10000 kPa, x2 = 0.2261 | 838.3 | –
333.15 K, 10000 kPa, x2 = 0.2999 | 834.2 | –
333.15 K, 10000 kPa, x2 = 0.3966 | 828.8 | –
333.15 K, 10000 kPa, x2 = 0.5289 | 821.1 | –
333.15 K, 10000 kPa, x2 = 0.6367 | 814.2 | –
333.15 K, 10000 kPa, x2 = 0.7249 | 808.3 | –
333.15 K, 10000 kPa, x2 = 0.7977 | 803 | –
333.15 K, 10000 kPa, x2 = 0.9131 | 794.1 | –
333.15 K, 20000 kPa, x2 = 0 | 858.6 | –
333.15 K, 20000 kPa, x2 = 0.1005 | 852.4 | –
333.15 K, 20000 kPa, x2 = 0.2261 | 845.8 | –
333.15 K, 20000 kPa, x2 = 0.2999 | 841.8 | –
333.15 K, 20000 kPa, x2 = 0.3966 | 836.4 | –
333.15 K, 20000 kPa, x2 = 0.5289 | 828.7 | –
333.15 K, 20000 kPa, x2 = 0.6367 | 821.9 | –
333.15 K, 20000 kPa, x2 = 0.7249 | 816 | –
333.15 K, 20000 kPa, x2 = 0.7977 | 810.7 | –
333.15 K, 20000 kPa, x2 = 0.9131 | 801.9 | –
333.15 K, 30000 kPa, x2 = 0 | 865.3 | –
333.15 K, 30000 kPa, x2 = 0.1005 | 859.2 | –
333.15 K, 30000 kPa, x2 = 0.2261 | 852.8 | –
333.15 K, 30000 kPa, x2 = 0.2999 | 848.7 | –
333.15 K, 30000 kPa, x2 = 0.3966 | 843.4 | –
333.15 K, 30000 kPa, x2 = 0.5289 | 835.7 | –
333.15 K, 30000 kPa, x2 = 0.6367 | 828.9 | –
333.15 K, 30000 kPa, x2 = 0.7249 | 823.1 | –
333.15 K, 30000 kPa, x2 = 0.7977 | 817.8 | –
333.15 K, 30000 kPa, x2 = 0.9131 | 809.1 | –
333.15 K, 40000 kPa, x2 = 0 | 871.6 | –
333.15 K, 40000 kPa, x2 = 0.1005 | 865.5 | –
333.15 K, 40000 kPa, x2 = 0.2261 | 859.2 | –
333.15 K, 40000 kPa, x2 = 0.2999 | 855.2 | –
333.15 K, 40000 kPa, x2 = 0.3966 | 849.8 | –
333.15 K, 40000 kPa, x2 = 0.5289 | 842.2 | –
333.15 K, 40000 kPa, x2 = 0.6367 | 835.5 | –
333.15 K, 40000 kPa, x2 = 0.7249 | 829.6 | –
333.15 K, 40000 kPa, x2 = 0.7977 | 824.4 | –
333.15 K, 40000 kPa, x2 = 0.9131 | 815.6 | –
333.15 K, 50000 kPa, x2 = 0 | 877.4 | –
333.15 K, 50000 kPa, x2 = 0.1005 | 871.4 | –
333.15 K, 50000 kPa, x2 = 0.2261 | 865.1 | –
333.15 K, 50000 kPa, x2 = 0.2999 | 861.1 | –
333.15 K, 50000 kPa, x2 = 0.3966 | 855.9 | –
333.15 K, 50000 kPa, x2 = 0.5289 | 848.3 | –
333.15 K, 50000 kPa, x2 = 0.6367 | 841.6 | –
333.15 K, 50000 kPa, x2 = 0.7249 | 835.7 | –
333.15 K, 50000 kPa, x2 = 0.7977 | 830.5 | –
333.15 K, 50000 kPa, x2 = 0.9131 | 821.7 | –
333.15 K, 60000 kPa, x2 = 0 | 883 | –
333.15 K, 60000 kPa, x2 = 0.1005 | 877.1 | –
333.15 K, 60000 kPa, x2 = 0.2261 | 870.8 | –
333.15 K, 60000 kPa, x2 = 0.2999 | 866.8 | –
333.15 K, 60000 kPa, x2 = 0.3966 | 861.6 | –
333.15 K, 60000 kPa, x2 = 0.5289 | 854 | –
333.15 K, 60000 kPa, x2 = 0.6367 | 847.3 | –
333.15 K, 60000 kPa, x2 = 0.7249 | 841.4 | –
333.15 K, 60000 kPa, x2 = 0.7977 | 836.3 | –
333.15 K, 60000 kPa, x2 = 0.9131 | 827.5 | –
333.15 K, 70000 kPa, x2 = 0 | 888.2 | –
333.15 K, 70000 kPa, x2 = 0.1005 | 882.3 | –
333.15 K, 70000 kPa, x2 = 0.2261 | 876.2 | –
333.15 K, 70000 kPa, x2 = 0.2999 | 872.2 | –
333.15 K, 70000 kPa, x2 = 0.3966 | 866.9 | –
333.15 K, 70000 kPa, x2 = 0.5289 | 859.5 | –
333.15 K, 70000 kPa, x2 = 0.6367 | 852.7 | –
333.15 K, 70000 kPa, x2 = 0.7249 | 846.9 | –
333.15 K, 70000 kPa, x2 = 0.7977 | 841.7 | –
333.15 K, 70000 kPa, x2 = 0.9131 | 832.9 | –
333.15 K, 80000 kPa, x2 = 0 | 893.2 | –
333.15 K, 80000 kPa, x2 = 0.1005 | 887.4 | –
333.15 K, 80000 kPa, x2 = 0.2261 | 881.2 | –
333.15 K, 80000 kPa, x2 = 0.2999 | 877.2 | –
333.15 K, 80000 kPa, x2 = 0.3966 | 872 | –
333.15 K, 80000 kPa, x2 = 0.5289 | 864.6 | –
333.15 K, 80000 kPa, x2 = 0.6367 | 857.8 | –
333.15 K, 80000 kPa, x2 = 0.7249 | 852 | –
333.15 K, 80000 kPa, x2 = 0.7977 | 846.8 | –
333.15 K, 80000 kPa, x2 = 0.9131 | 838 | –
333.15 K, 90000 kPa, x2 = 0 | 898 | –
333.15 K, 90000 kPa, x2 = 0.1005 | 892.2 | –
333.15 K, 90000 kPa, x2 = 0.2261 | 886 | –
333.15 K, 90000 kPa, x2 = 0.2999 | 882.1 | –
333.15 K, 90000 kPa, x2 = 0.3966 | 876.9 | –
333.15 K, 90000 kPa, x2 = 0.5289 | 869.4 | –
333.15 K, 90000 kPa, x2 = 0.6367 | 862.7 | –
333.15 K, 90000 kPa, x2 = 0.7249 | 856.9 | –
333.15 K, 90000 kPa, x2 = 0.7977 | 851.7 | –
333.15 K, 90000 kPa, x2 = 0.9131 | 842.9 | –
333.15 K, 100000 kPa, x2 = 0 | 902.5 | –
333.15 K, 100000 kPa, x2 = 0.1005 | 896.8 | –
333.15 K, 100000 kPa, x2 = 0.2261 | 890.7 | –
333.15 K, 100000 kPa, x2 = 0.2999 | 886.7 | –
333.15 K, 100000 kPa, x2 = 0.3966 | 881.5 | –
333.15 K, 100000 kPa, x2 = 0.5289 | 874.1 | –
333.15 K, 100000 kPa, x2 = 0.6367 | 867.4 | –
333.15 K, 100000 kPa, x2 = 0.7249 | 861.6 | –
333.15 K, 100000 kPa, x2 = 0.7977 | 856.4 | –
333.15 K, 100000 kPa, x2 = 0.9131 | 847.6 | –
333.15 K, 120000 kPa, x2 = 0 | 911.1 | –
333.15 K, 120000 kPa, x2 = 0.1005 | 905.4 | –
333.15 K, 120000 kPa, x2 = 0.2261 | 899.4 | –
333.15 K, 120000 kPa, x2 = 0.2999 | 895.4 | –
333.15 K, 120000 kPa, x2 = 0.3966 | 890.3 | –
333.15 K, 120000 kPa, x2 = 0.5289 | 882.8 | –
333.15 K, 120000 kPa, x2 = 0.6367 | 876.1 | –
333.15 K, 120000 kPa, x2 = 0.7249 | 870.3 | –
333.15 K, 120000 kPa, x2 = 0.7977 | 865.2 | –
333.15 K, 120000 kPa, x2 = 0.9131 | 856.4 | –
333.15 K, 140000 kPa, x2 = 0 | 919 | –
333.15 K, 140000 kPa, x2 = 0.1005 | 913.3 | –
333.15 K, 140000 kPa, x2 = 0.2261 | 907.6 | –
333.15 K, 140000 kPa, x2 = 0.2999 | 903.3 | –
333.15 K, 140000 kPa, x2 = 0.3966 | 898.3 | –
333.15 K, 140000 kPa, x2 = 0.5289 | 891 | –
333.15 K, 140000 kPa, x2 = 0.6367 | 884.3 | –
333.15 K, 140000 kPa, x2 = 0.7249 | 878.6 | –
333.15 K, 140000 kPa, x2 = 0.7977 | 873.5 | –
333.15 K, 140000 kPa, x2 = 0.9131 | 864.5 | –
